These results are taken from article PMC7046553, “Backbone Cyclization and Dimerization of LL-37-Derived Peptides Enhance Antimicrobial Activity and Proteolytic Stability” (Frontiers in Microbiology, 2020).

In brackets after ≈: the same amount, converted by molar mass. Where two headings read alike, the source gives them in different places. Where a SMILES comes first, the peptide text is derived from it. Where no end group is shown, it is not given here.

The subject of data set [1] is Staphylococcus aureus ATCC 29213. The settings on record: ATCC 29213, 5 h. The method, then: (§1) The three bacterial strains: Escherichia coli ATCC 25922, Pseudomonas aeruginosa ATCC 27853 Staphylococcus aureus ATCC 29213 as well as the fungal strain Candida albicans ATCC 90028 derived from clinical wound infections were obtained from the Department of Clinical Bacteriology at Lund University Hospital.
(§2) Antimicrobial activities of the peptides were evaluated using the two-step microdilution assay ([Strömstedt et al., 2017]), which is designed for testing AMPs without activity-inhibiting components. Briefly, the microbial suspension was washed twice with 10 mM Tris buffer (set to pH 7.4 at 37°C). 96-well plates (U-shaped, untreated polystyrene) were prepared with peptide 2-fold serial dilutions in Tris buffer. The culture density was quantified by OD600, diluted in Tris buffer and 50,000 cells aliquoted to each well in the 96-well plate to a final 100 μl volume. After 5 h of aerobic incubation at 37°C, 5 μl of 20% TSB medium was added to each well (resulting in 1% TSB) and the plates were re-incubated. Growth-inhibition was monitored when controls produced pellet sizes of 2 mm in diameter (close to growth saturation), which equates to 5, 8, 10, and 12 h for E. coli, S. aureus, P. aeruginosa, and C. albicans, respectively. […] The MIC-values in Table 1, are medians from triplicate experiments, while the data presented in the Figure 2 are the same values relative to that of KR-12.

The subject of data set [2] is Escherichia coli ATCC 25922. To be noted: ATCC 25922, 5 h. The method, then:
as §1, §2

The subject of data set [3] is Candida albicans ATCC 90028. The method, then:
as §1, §2

The test system of data set [4] is Pseudomonas aeruginosa ATCC 27853. As to the method: as §1, §2
The nature of a further data set: in vitro. The settings on record: human, 25% human serum. As to the method: Proteolytic stability of the peptides were determined in diluted human serum (1:4 v/v, serum:PBS) at 37°C followed by LC-MS analysis. To examine the intact peptide after serum incubation, aliquots of each incubation mixture were taken at each time point for LC-MS analysis (Figure 5).
Peptide stability was assayed in diluted human serum. 25% human serum was centrifuged at 13,000 rpm for 10 min to remove lipids and the supernatant was collected and incubated at 37°C for 15 min. […] Eighty μl of 6 M urea was added and incubated at 4°C for a further 10 min. 80 μl of 20% TCA was added and incubated at 4°C for a further 10 min. The samples were centrifuged at 13000 g for 10 min and the supernatant was analyzed by LC-MS.

The mark [5] stands for this setting: median of triplicate experiments.

With `CC[C@H](C)[C@@H]1NC(=O)[C@H](CCCCN)NC(=O)[C@H](CC(=O)O)NC(=O)[C@H](Cc2ccccc2)NC(=O)[C@H](CC(C)C)NC(=O)[C@H](CCCNC(=N)N)NC(=O)CNC(=O)CNC(=O)[C@H](CS)NC(=O)CNC(=O)[C@H](CCCCN)NC(=O)[C@H](CCCNC(=N)N)NC(=O)[C@H]([C@@H](C)CC)NC(=O)[C@H](C(C)C)NC(=O)[C@H](CCC(N)=O)NC(=O)[C@H](CCCNC(=N)N)NC(=O)[C@H]([C@@H](C)CC)NC(=O)[C@H](CCCCN)NC(=O)[C@H](CC(=O)O)NC(=O)[C@H](Cc2ccccc2)NC(=O)[C@H](CC(C)C)NC(=O)[C@H](CCCNC(=N)N)NC(=O)CNC(=O)CNC(=O)[C@H](C)NC(=O)CNC(=O)[C@H](CCCCN)NC(=O)[C@H](CCCNC(=N)N)NC(=O)[C@H]([C@@H](C)CC)NC(=O)[C@H](C(C)C)NC(=O)[C@H](CCC(N)=O)NC(=O)[C@H](CCCNC(=N)N)NC1=O` [Peptide 2retro-cd4] (cyclo(CGGRLFDKIRQVIRKGAGGRLFDKIRQVIRKG)), in data set [1], the “MIC S. aureus” value amounted to 1.25 µM (≈ 4.53 µg/mL). Also, the “MIC E. coli” value in data set [2] was determined as 0.625 µM (≈ 2.27 µg/mL). Besides, in data set [3] (ATCC 90028, 5 h), the “MIC C. albicans” value came to 2.5 µM (≈ 9.06 µg/mL). In data set [4] (ATCC 27853, 5 h), the “MIC P. aeruginosa” value was determined as 1.25 µM (≈ 4.53 µg/mL).

For `CC[C@H](C)[C@@H]1NC(=O)[C@H](CCCNC(=N)N)NC(=O)[C@H](CCC(N)=O)NC(=O)[C@H](C(C)C)NC(=O)[C@H]([C@@H](C)CC)NC(=O)[C@H](CCCNC(=N)N)NC(=O)[C@H](CCCCN)NC(=O)CNC(=O)[C@H](C)NC(=O)CNC(=O)[C@H](CCCNC(=N)N)NC(=O)[C@H](CC(C)C)NC(=O)[C@H](Cc2ccccc2)NC(=O)[C@H](CC(=O)O)NC(=O)[C@H](CCCCN)NC(=O)[C@H]([C@@H](C)CC)NC(=O)[C@H](CCCNC(=N)N)NC(=O)[C@H](CCC(N)=O)NC(=O)[C@H](C(C)C)NC(=O)[C@H]([C@@H](C)CC)NC(=O)[C@H](CCCNC(=N)N)NC(=O)[C@H](CCCCN)NC(=O)CNC(=O)[C@H](C)NC(=O)CNC(=O)[C@H](CCCNC(=N)N)NC(=O)[C@H](CC(C)C)NC(=O)[C@H](Cc2ccccc2)NC(=O)[C@H](CC(=O)O)NC(=O)[C@H](CCCCN)NC1=O` [cd3] (cyclo(AGKRIVQRIKDFLRGAGKRIVQRIKDFLRG)), the “MIC S. aureus” value in data set [1] was found to be 1.25 µM (≈ 4.35 µg/mL). In data set [2], the “MIC E. coli” value came to 0.625 µM (≈ 2.17 µg/mL). Also, the “MIC C. albicans” value in data set [3] (ATCC 90028, 5 h) came to 1.25 µM (≈ 4.35 µg/mL). Besides, the “MIC P. aeruginosa” value in data set [4] (ATCC 27853, 5 h) turned out to be 0.625 µM (≈ 2.17 µg/mL).

Regarding `CC(C)C[C@@H]1NC(=O)CNC(=O)[C@H](CC(N)=O)NC(=O)[C@H](CCCNC(=N)N)NC(=O)[C@H]([C@@H](C)O)NC(=O)[C@@H]2CSSC[C@@H]3NC(=O)[C@H]([C@@H](C)O)NC(=O)CNC(=O)CNC(=O)[C@H](C(C)C)NC(=O)[C@@H]4CSSC[C@H](NC(=O)[C@H]([C@@H](C)O)NC(=O)[C@H](CSSC[C@H](NC(=O)[C@H](C(C)C)NC(=O)[C@@H]5CCCN5C1=O)C(=O)NCC(=O)N[C@@H](CCC(=O)O)C(=O)N[C@@H]([C@@H](C)O)C(=O)N4)NC(=O)CNC(=O)[C@@H]1CCCN1C(=O)[C@H]([C@@H](C)O)NC(=O)[C@H](CC(N)=O)NC3=O)C(=O)N[C@@H](CO)C(=O)N[C@@H](Cc1c[nH]c3ccccc13)C(=O)N1CCC[C@H]1C(=O)N[C@@H](C(C)C)C(=O)N2` [kalata B1, reference compound], in “in vitro”, the fraction remaining (as a rule, what is left of the initial amount, in per cent) at 24 h stood at 80%.

For the compound `CC[C@H](C)[C@@H]1NC(=O)[C@H](CCCCN)NC(=O)[C@H](CC(=O)O)NC(=O)[C@H](Cc2ccccc2)NC(=O)[C@H](CC(C)C)NC(=O)[C@H](CCCNC(=N)N)NC(=O)[C@H](C)NC(=O)CNC(=O)[C@H](CCCNC(=N)N)NC(=O)[C@H](CC(C)C)NC(=O)[C@H](Cc2ccccc2)NC(=O)[C@H](CC(=O)O)NC(=O)[C@H](CCCCN)NC(=O)[C@H]([C@@H](C)CC)NC(=O)[C@H](CCCNC(=N)N)NC(=O)[C@H](CCC(N)=O)NC(=O)[C@H](C(C)C)NC(=O)[C@H]([C@@H](C)CC)NC(=O)[C@H](CCCNC(=N)N)NC(=O)[C@H](CCCCN)NC(=O)[C@H](C)NC(=O)CNC(=O)[C@H](CCCCN)NC(=O)[C@H](CCCNC(=N)N)NC(=O)[C@H]([C@@H](C)CC)NC(=O)[C@H](C(C)C)NC(=O)[C@H](CCC(N)=O)NC(=O)[C@H](CCCNC(=N)N)NC1=O` [retro-cd2] (cyclo(AKRIVQRIKDFLRGARLFDKIRQVIRKG)), the “MIC S. aureus” value in data set [1] was determined as 1.25 µM (≈ 4.21 µg/mL). The “MIC E. coli” value in data set [2] stood at 0.625 µM (≈ 2.1 µg/mL). Also, in data set [3] (ATCC 90028, 5 h), the “MIC C. albicans” value came to 2.5 µM (≈ 8.41 µg/mL). The “MIC P. aeruginosa” value in data set [4] (ATCC 27853, 5 h) is 1.25 µM (≈ 4.21 µg/mL).

With `CC[C@H](C)[C@@H]1NC(=O)[C@H](CCCCN)NC(=O)[C@H](CC(=O)O)NC(=O)[C@H](Cc2ccccc2)NC(=O)[C@H](CC(C)C)NC(=O)[C@H](CCCNC(=N)N)NC(=O)CNC(=O)[C@H](C)NC(=O)CNC(=O)[C@H](CCCNC(=N)N)NC(=O)[C@H](CC(C)C)NC(=O)[C@H](Cc2ccccc2)NC(=O)[C@H](CC(=O)O)NC(=O)[C@H](CCCCN)NC(=O)[C@H]([C@@H](C)CC)NC(=O)[C@H](CCCNC(=N)N)NC(=O)[C@H](CCC(N)=O)NC(=O)[C@H](C(C)C)NC(=O)[C@H]([C@@H](C)CC)NC(=O)[C@H](CCCNC(=N)N)NC(=O)[C@H](CCCCN)NC(=O)CNC(=O)[C@H](C)NC(=O)CNC(=O)[C@H](CCCCN)NC(=O)[C@H](CCCNC(=N)N)NC(=O)[C@H]([C@@H](C)CC)NC(=O)[C@H](C(C)C)NC(=O)[C@H](CCC(N)=O)NC(=O)[C@H](CCCNC(=N)N)NC1=O` [retro-cd3] (cyclo(AGKRIVQRIKDFLRGAGRLFDKIRQVIRKG)), the “MIC S. aureus” value in data set [1] was found to be 1.25 µM (≈ 4.35 µg/mL). Besides, the “MIC E. coli” value in data set [2] was determined as 1.25 µM (≈ 4.35 µg/mL). Moreover, the “MIC C. albicans” value in data set [3] (ATCC 90028, 5 h) is 2.5 µM (≈ 8.7 µg/mL). For the same compound, the “MIC P. aeruginosa” value in data set [4] (ATCC 27853, 5 h) came to 1.25 µM (≈ 4.35 µg/mL).

Turning to `CC[C@H](C)[C@@H]1NC(=O)[C@H](CCCCN)NC(=O)[C@H](CC(=O)O)NC(=O)[C@H](Cc2ccccc2)NC(=O)[C@H](CC(C)C)NC(=O)[C@H](CCCNC(=N)N)NC(=O)CNC(=O)CNC(=O)[C@H](C)NC(=O)CNC(=O)[C@H](CCCNC(=N)N)NC(=O)[C@H](CC(C)C)NC(=O)[C@H](Cc2ccccc2)NC(=O)[C@H](CC(=O)O)NC(=O)[C@H](CCCCN)NC(=O)[C@H]([C@@H](C)CC)NC(=O)[C@H](CCCNC(=N)N)NC(=O)[C@H](CCC(N)=O)NC(=O)[C@H](C(C)C)NC(=O)[C@H]([C@@H](C)CC)NC(=O)[C@H](CCCNC(=N)N)NC(=O)[C@H](CCCCN)NC(=O)CNC(=O)CNC(=O)[C@H](C)NC(=O)CNC(=O)[C@H](CCCCN)NC(=O)[C@H](CCCNC(=N)N)NC(=O)[C@H]([C@@H](C)CC)NC(=O)[C@H](C(C)C)NC(=O)[C@H](CCC(N)=O)NC(=O)[C@H](CCCNC(=N)N)NC1=O` [retro-cd4] (cyclo(AGGKRIVQRIKDFLRGAGGRLFDKIRQVIRKG)), in data set [3] (setting [5]), the “MIC C. albicans” value is 2.5 µM (≈ 8.98 µg/mL). In data set [4] (setting [5]), the “MIC P. aeruginosa” value came to 0.625 µM (≈ 2.25 µg/mL).

“CGGKRIVQRIKDFLRGAGGRLFDKIRQVIRKG-NH2 (C-terminus assumed) [retro-ld4*]”: the “MIC S. aureus” value in data set [1] was 1.25 µM. Moreover, in data set [2], the “MIC E. coli” value was found to be 0.625 µM. The “fold lower MIC compared to KR-12, C. albicans” value in data set [3] is given as 16 fold. For the same compound, in data set [3] (ATCC 90028, 5 h), the “MIC C. albicans” value worked out at 0.625 µM. Further, in data set [4] (ATCC 27853, 5 h), the “MIC P. aeruginosa” value worked out at 0.625 µM.
